Common to all, as to type: in vivo
In experiment [1] the test system is sedge, umbrella (small-flower umbrella sedge, Cyperus difformis). The experiment can be described thus: Test B flooded paddy test. The conditions noted are these: Cyperus difformis, 360 h; 250 g ai/ha, Flood; visual rating on scale of 0 to 100 where 0 is no effect and 100 is complete control; 13 to 15 d after treatment; read-out: Plant response rating, Sedge, Umbrella. Put shortly:
(§1)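 Ratings use a 0-100 visual scale, where 100 is complete control, and compare treated plants with controls after 13 to 15 d of greenhouse growth. Compound went straight into paddy water kept 3 cm over the soil surface, applied to seedlings at the 2-leaf stage.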

Experiment [2] concerns ducksalad (Heteranthera limosa). The experiment can be described thus: Test B flooded paddy test. The conditions noted are these: Heteranthera limosa, 360 h; 250 g ai/ha, Flood; visual rating on scale of 0 to 100 where 0 is no effect and 100 is complete control; 13 to 15 d after treatment; read-out: Plant response rating, Ducksalad. In a few lines: as §1
In experiment [3] the test system is barnyardgrass (Echinochloa crus-galli). Description: Test B flooded paddy test. Particulars: Echinochloa crus-galli, 360 h; 250 g ai/ha, Flood; visual rating on scale of 0 to 100 where 0 is no effect and 100 is complete control; 13 to 15 d after treatment; read-out: Plant response rating, Barnyardgrass. Put shortly:
as §1

Another experiment relates to rice (Oryza sativa). The experiment can be described thus: Test B flooded paddy test. Particulars: Oryza sativa, 360 h; 250 g ai/ha, Flood; visual rating on scale of 0 to 100 where 0 is no effect and 100 is complete control; 13 to 15 d after treatment; read-out: Plant response rating, Rice. Put shortly: as §1
Experiment [4] relates to pigweed (Amaranthus retroflexus). The experiment can be described thus: Test A greenhouse herbicide test, pre- and postemergence. Particulars: Amaranthus retroflexus, 240 h; for pest or weed control at 1000 g/ha: 1000 g ai/ha; for pest or weed control at 1000 g/ha / pest or weed control at 500 g/ha: 0 to 100 scale; for pest or weed control at 125 g/ha: 125 g ai/ha; for pest or weed control at 500 g/ha: 500 g ai/ha. Put shortly:
(§2)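 Visual injury ratings, 0 (no effect) to 100 (complete control), versus untreated plants after roughly 10 d in a greenhouse. Compounds, formulated in a surfactant-containing non-phytotoxic solvent, were sprayed on loam–sand soil after sowing (pre) or on one- to two-leaf plants 2–10 cm tall (post).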

For the next experiment, the system named is corn (Zea mays). The experiment is described as above. The conditions noted are these: Zea mays, 240 h; for plant injury at 1000 g/ha / Corn plant response rating (crop injury, 0 = no effect, 100 = complete kill) at 125 g/ha / plant injury at 500 g/ha: post-emergence, Postemergence; for plant injury at 1000 g/ha / Corn plant response rating (crop injury, 0 = no effect, 100 = complete kill) at 1000 g/ha: 1000 g ai/ha; for plant injury at 1000 g/ha / Corn plant response rating (crop injury, 0 = no effect, 100 = complete kill) at 1000 g/ha / plant injury at 500 g/ha / Corn plant response rating (crop injury, 0 = no effect, 100 = complete kill) at 500 g/ha: 0 to 100 scale; for plant injury at 1000 g/ha / plant injury at 500 g/ha: 0 is no effect, 100 is complete control; for plant injury at 1000 g/ha / plant injury at 500 g/ha / plant injury at 125 g/ha: read-out: Corn plant response rating; for Corn plant response rating (crop injury, 0 = no effect, 100 = complete kill) at 1000 g/ha / plant injury at 125 g/ha / Corn plant response rating (crop injury, 0 = no effect, 100 = complete kill) at 500 g/ha: pre-emergence, Preemergence; for Corn plant response rating (crop injury, 0 = no effect, 100 = complete kill) at 1000 g/ha / Corn plant response rating (crop injury, 0 = no effect, 100 = complete kill) at 500 g/ha: 100 complete control; for Corn plant response rating (crop injury, 0 = no effect, 100 = complete kill) at 125 g/ha / plant injury at 125 g/ha: 125 g ai/ha; for Corn plant response rating (crop injury, 0 = no effect, 100 = complete kill) at 125 g/ha: visual rating after approx. 10 d, 0 to 100 scale (0 no effect, 100 complete control); for plant injury at 500 g/ha / Corn plant response rating (crop injury, 0 = no effect, 100 = complete kill) at 500 g/ha: 500 g ai/ha; for plant injury at 125 g/ha: 0 to 100 scale where 0 is no effect and 100 is complete control. Put shortly: as §2

For experiment [5], the system named is foxtail, giant (giant foxtail, Setaria faberii). The description is as above. Particulars: Setaria faberi, 240 h; for pest or weed control at 1000 g/ha: 1000 g ai/ha; for pest or weed control at 1000 g/ha / pest or weed control at 500 g/ha: 0 to 100 scale; for pest or weed control at 125 g/ha: 125 g ai/ha; for pest or weed control at 500 g/ha: 500 g ai/ha. Put shortly: as §2

The test system of experiment [6] is wheat (Triticum aestivum). The description is as above. The conditions noted are these: Triticum aestivum, 240 h; for plant injury at 1000 g/ha: 1000 g ai/ha; for plant injury at 1000 g/ha / plant injury at 500 g/ha: 0 to 100 scale; for plant injury at 125 g/ha: 125 g ai/ha; for plant injury at 500 g/ha: 500 g ai/ha. Put shortly:
as §2

[7] abbreviates: post-emergence, Postemergence, 0 is no effect, 100 is complete control, read-out: Pigweed plant response rating.
Where [8] appears, read: pre-emergence, Preemergence, 0 no effect, 100 complete control, read-out: Plant response rating, Pigweed.
The mark [9] stands for this setting: post-emergence, Postemergence, 0 is no effect, 100 is complete control, read-out: Foxtail, Giant plant response rating.
The mark [10] stands for this setting: pre-emergence, Preemergence, 0 no effect, 100 complete control, read-out: Plant response rating, Foxtail, Giant.
Where [11] appears, read: post-emergence, Postemergence, 0 is no effect, 100 is complete control, read-out: Wheat plant response rating.
[12] abbreviates: pre-emergence, Preemergence, 0 no effect, 100 complete control, read-out: Plant response rating, Wheat.
Setting [13] is: post-emergence, Postemergence, visual rating after approx. 10 d, 0 to 100 scale (0 no effect, 100 complete control), read-out: Plant response rating, Pigweed.
[14] abbreviates: pre-emergence, Preemergence, 0 to 100 scale where 0 is no effect and 100 is complete control, read-out: Pigweed plant response rating.
The mark [15] stands for this setting: post-emergence, Postemergence, visual rating after approx. 10 d, 0 to 100 scale (0 no effect, 100 complete control), read-out: Plant response rating, Foxtail, Giant.
The mark [16] stands for this setting: pre-emergence, Preemergence, 0 to 100 scale where 0 is no effect and 100 is complete control, read-out: Foxtail, Giant plant response rating.
Setting [17] is: post-emergence, Postemergence, visual rating after approx. 10 d, 0 to 100 scale (0 no effect, 100 complete control), read-out: Plant response rating, Wheat.
[18] abbreviates: pre-emergence, Preemergence, 0 to 100 scale where 0 is no effect and 100 is complete control, read-out: Wheat plant response rating.

Drawing on patent US10597388B2, “Pyridazinone herbicides” (FMC CORPORATION, priority 2014, dated 2020), this text covers pest or weed control, plant injury and Corn plant response rating (crop injury, 0 = no effect, 100 = complete kill) for 4 compounds.

SMILES strings stand for the structures. Like-named read-outs stand apart in the source and are kept apart here.

`CCc1oc2ccc(C)cc2c1-c1c(O)c(C)nn(C)c1=O` [Compound 10, 4-(2-ethyl-5-methyl-3-benzofuranyl)-5-hydroxy-2,6-dimethyl-3(2H)-pyridazinone]: the pest or weed control at 250 g/ha was 0% in experiment [1], 30% in experiment [2] and 0% in experiment [3]. Besides, the plant injury at 250 g/ha with rice (Oryza sativa) is 0%. Further, the pest or weed control at 1000 g/ha amounted to 90% in experiment [4] (setting [7]), 100% in experiment [4] (setting [8]), 80% in experiment [5] (setting [9]) and 100% in experiment [5] (setting [10]). The values for the plant injury at 1000 g/ha (in the experiment on corn (Zea mays); in experiment [6] (setting [11]); in experiment [6] (setting [12])) were 20%, 0% and 0%, respectively. In addition, the Corn plant response rating (crop injury, 0 = no effect, 100 = complete kill) at 1000 g/ha with corn (Zea mays) came out at 10%.
`Cc1nn(C)c(=O)c(-c2c(C)oc3cccc(C)c23)c1O` [Compound 8, 4-(2,4-dimethyl-3-benzofuranyl)-5-hydroxy-2,6-dimethyl-3(2H)-pyridazinone]: the pest or weed control at 250 g/ha in experiment [1] stood at 70%; in experiment [2] it was 20%; in experiment [3] it was 30%. Further, the plant injury at 250 g/ha with rice (Oryza sativa) is 0%. The pest or weed control at 125 g/ha in experiment [4] (setting [13]) came to 70%; in experiment [4] (setting [14]), 70%; in experiment [5] (setting [15]) it was 0%; in experiment [5] (setting [16]) it was 40%. In addition, the pest or weed control at 500 g/ha came to 80% in experiment [4] (setting [7]), 100% in experiment [4] (setting [8]), 30% in experiment [5] (setting [9]) and 60% in experiment [5] (setting [10]). This compound had a Corn plant response rating (crop injury, 0 = no effect, 100 = complete kill) at 125 g/ha with corn (Zea mays) of 0%. The plant injury at 500 g/ha (with corn (Zea mays); in experiment [6] (setting [11]); in experiment [6] (setting [12])) was 0% in each case. For the same compound, the plant injury at 125 g/ha (in the experiment with corn (Zea mays); in experiment [6] (setting [17]); in experiment [6] (setting [18])) was 0% in each case. In addition, the Corn plant response rating (crop injury, 0 = no effect, 100 = complete kill) at 500 g/ha in the experiment with corn (Zea mays) was 0%.
Take `Cc1nn(C)c(=O)c(-c2cccc3ccccc23)c1O` [Compound 11, 5-hydroxy-2,6-dimethyl-4-(1-naphthalenyl)-3(2H)-pyridazinone]: the pest or weed control at 250 g/ha in experiment [1], in experiment [2] and in experiment [3] was 0% in each case. In addition, the plant injury at 250 g/ha in the experiment on rice (Oryza sativa) stood at 0%. Further, the pest or weed control at 1000 g/ha is 90% in experiment [4] (setting [7]), 100% in experiment [4] (setting [8]), 90% in experiment [5] (setting [9]) and 90% in experiment [5] (setting [10]). Further, the plant injury at 1000 g/ha is 50% in the experiment with corn (Zea mays), 60% in experiment [6] (setting [11]) and 50% in experiment [6] (setting [12]). For the same compound, the Corn plant response rating (crop injury, 0 = no effect, 100 = complete kill) at 1000 g/ha with corn (Zea mays) was found to be 20%.
Turning to `Cc1cc(C)c2sc(C)c(-c3c(O)c(C)nn(C)c3=O)c2c1` [Compound 2, 5-hydroxy-2,6-dimethyl-4-(2,5,7-trimethylbenzo[b]thien-3-yl)-3(2H)-pyridazinone], the pest or weed control at 250 g/ha in experiment [1] is 85%; in experiment [2] it was 80%; in experiment [3], 30%. Also, the plant injury at 250 g/ha with rice (Oryza sativa) was 35%. The pest or weed control at 125 g/ha in experiment [4] (setting [13]) is 100%; in experiment [4] (setting [14]) it was 100%; in experiment [5] (setting [15]), 80%; in experiment [5] (setting [16]), 100%. Also, the pest or weed control at 500 g/ha in experiment [4] (setting [7]) is 100%; in experiment [4] (setting [8]), 100%; in experiment [5] (setting [9]), 90%; in experiment [5] (setting [10]), 100%. In the experiment with corn (Zea mays), this compound showed a Corn plant response rating (crop injury, 0 = no effect, 100 = complete kill) at 125 g/ha of 0%. Also, the results for the plant injury at 500 g/ha (in the experiment on corn (Zea mays); in experiment [6] (setting [11]); in experiment [6] (setting [12])) were 20%, 20% and 0%, respectively. Also, the plant injury at 125 g/ha with corn (Zea mays) was 0%; in experiment [6] (setting [17]), 20%; in experiment [6] (setting [18]) it was 0%. In the experiment on corn (Zea mays), this compound returned a Corn plant response rating (crop injury, 0 = no effect, 100 = complete kill) at 500 g/ha of 10%.
